ChEMBL document CHEMBL1150308, “Cytotoxic constituents from Brazilian red propolis and their structure-activity relationship” (Bioorg Med Chem, 2008)
pIC50: −log10 of the molar value.

Key:
Type in all cases: functional, cell-based
[1] = test system: A549; experiment: Cytotoxicity against human A549 cells after 72 hrs by MTT assay; details: A549, 72 h
[2] = Cytotoxicity against mouse B16-BL6 cells after 72 hrs by MTT assay; details: B16-BL6, 72 h
[3] = test system: HT-1080; experiment: Cytotoxicity against human HT1080 cells after 72 hrs by MTT assay; details: HT-1080, 72 h
[4] = Cytotoxicity against mouse LLC cells after 72 hrs by MTT assay; details: Lewis lung carcinoma
[5] = Cytotoxicity against mouse colon 26-L5 cells after 72 hrs by MTT assay
[6] = test system: HeLa; experiment: Cytotoxicity against human HeLa cells after 72 hrs by MTT assay

| Structure (SMILES) | pIC50 [1] | pIC50 [2] | pIC50 [3] | pIC50 [4] | pIC50 [5] | pIC50 [6] |
| --- | --- | --- | --- | --- | --- | --- |
| COc1cc(O)ccc1[C@H]1COc2cc(O)ccc2C1 | < 4.00 | 4.47 | 4.12 | < 4.00 | 4.30 | 4.11 |
| O=C1c2ccc(O)cc2O[C@H](c2ccccc2)[C@H]1O | < 4.00 | < 4.00 | < 4.00 | < 4.00 | < 4.00 | < 4.00 |
| O=C(c1ccc(O)cc1O)[C@@H](O)Cc1ccc(O)cc1 | < 4.00 | < 4.00 | < 4.00 | < 4.00 | < 4.00 | < 4.00 |
| C=C[C@@H](c1ccccc1)c1cc(O)c(OC)cc1OC | 4.13 | 4.27 | < 4.00 | < 4.00 | 4.22 | 4.22 |
| COc1ccc([C@H]2COc3cc(O)ccc3C2)c(O)c1 | < 4.00 | 4.24 | < 4.00 | 4.03 | 4.17 | 4.14 |
| COc1ccc([C@H]2COc3cc(O)ccc3C2=O)c(O)c1 | < 4.00 | < 4.00 | < 4.00 | < 4.00 | 4.17 | < 4.00 |
| COc1ccc2c(c1O)O[C@@H]1c3ccc(O)cc3OC[C@H]21 | < 4.00 | 4.32 | < 4.00 | 4.24 | 4.17 | 4.21 |
| COc1ccc2c(C)c(-c3ccc(O)cc3O)oc2c1 | 4.37 | 4.35 | 4.41 | 4.46 | 4.56 | 4.44 |
| COc1ccc2c(c1)O[C@H]1c3ccc(O)c(O)c3OC[C@@H]21 | < 4.00 | < 4.00 | < 4.00 | < 4.00 | 4.27 | < 4.00 |
| COc1cc(O)ccc1C(=O)/C=C/c1ccc(O)cc1 | 4.21 | 4.25 | 4.29 | 4.16 | 4.91 | 4.17 |
| COc1ccc([C@H]2COc3cc(O)ccc3C2=O)c(OC)c1O | < 4.00 | < 4.00 | < 4.00 | < 4.00 | < 4.00 | < 4.00 |
| O=C1c2ccc(O)cc2OC1(O)Cc1ccc(O)cc1 (configuration not stated) | < 4.00 | < 4.00 | < 4.00 | < 4.00 | 4.59 | < 4.00 |
| COc1cc2c(cc1O)O[C@H](c1ccccc1)[C@@H](O)C2=O | < 4.00 | < 4.00 | < 4.00 | < 4.00 | < 4.00 | < 4.00 |
| COc1ccc([C@H]2COc3cc(OC)ccc3C2)c(O)c1 | 4.34 | 4.62 | 4.30 | 4.62 | 4.53 | 4.35 |
| CCO[C@@]12COc3cc(O)ccc3[C@@H]1Oc1cc(OC)ccc12 | < 4.00 | < 4.00 | < 4.00 | < 4.00 | < 4.00 | < 4.00 |
| O=C1C[C@@H](c2ccccc2)Oc2cc(O)c(O)c(O)c21 | < 4.00 | < 4.00 | < 4.00 | < 4.00 | 4.27 | < 4.00 |
| COc1cc2c(cc1O)O[C@H](c1ccccc1)CC2=O | 5.07 | 5.17 | 5.10 | 5.03 | 5.23 | 5.25 |
| COc1ccc(-c2coc3cc(O)cc(O)c3c2=O)c(O)c1 | < 4.00 | < 4.00 | < 4.00 | < 4.00 | 4.03 | < 4.00 |
| COc1ccc([C@H]2COc3cc(O)cc(O)c3C2=O)c(O)c1 | < 4.00 | < 4.00 | < 4.00 | < 4.00 | 4.15 | < 4.00 |
| COc1ccc2c(c1)O[C@H]1c3ccc(O)c(OC)c3OC[C@@H]21 | 4.01 | < 4.00 | 4.02 | 4.01 | 4.53 | 4.33 |
| COc1ccc2c(c1)O[C@@H]1c3ccc(O)cc3OC[C@H]21 | 4.40 | 4.37 | 4.55 | 4.76 | 4.95 | 4.63 |

| Structure (SMILES) | pIC50 [1] | pIC50 [2] | pIC50 [3] | pIC50 [4] | pIC50 [5] | pIC50 [6] |
| --- | --- | --- | --- | --- | --- | --- |
| O=C(/C=C/c1ccccc1)c1ccc(O)cc1O [2',4'-DIHYDROXYCHALCONE] | 4.38 | 4.35 | 4.47 | 4.40 | 5.13 | 4.64 |
| COc1ccc([C@H]2OC[C@H]3[C@@H]2CO[C@@H]3c2ccc(OC)c(OC)c2)cc1OC [(+)-EUDESMIN] | < 4.00 | < 4.00 | < 4.00 | < 4.00 | < 4.00 | < 4.00 |
| COc1cc([C@@H]2OC[C@@H]3[C@H]2CO[C@H]3c2ccc(O)c(OC)c2)ccc1O [(+)-PINORESINOL] | < 4.00 | < 4.00 | < 4.00 | < 4.00 | < 4.00 | 4.03 |
| COc1c(O)cc2oc(-c3ccccc3)c(O)c(=O)c2c1O [ALNUSIN] | < 4.00 | < 4.00 | < 4.00 | < 4.00 | < 4.00 | < 4.00 |
| COc1c(O)cc2c(c1O)C(=O)[C@H](O)[C@@H](c1ccccc1)O2 [ALNUSTINOL] | < 4.00 | < 4.00 | < 4.00 | < 4.00 | < 4.00 | < 4.00 |
| COc1ccc(-c2coc3cc(O)cc(O)c3c2=O)cc1 [BIOCHANIN] | < 4.00 | < 4.00 | < 4.00 | < 4.00 | 4.01 | < 4.00 |
| COc1ccc(-c2coc3cc(O)ccc3c2=O)cc1O [CALYCOSIN] | < 4.00 | < 4.00 | < 4.00 | < 4.00 | 4.01 | < 4.00 |
| O=c1c(-c2ccc(O)cc2)coc2cc(O)ccc12 [DAIDZEIN] | < 4.00 | < 4.00 | < 4.00 | < 4.00 | 4.06 | < 4.00 |
| COc1c(O)cc2c(c1O)C(=O)C[C@@H](c1ccccc1)O2 [DIHYDROOROXYLIN A] | 4.42 | 4.14 | 4.32 | 4.08 | 4.31 | 4.41 |
| COc1cccc2c1C(=O)c1c(O)c3c(c(O)c1C2=O)C[C@@](O)(C(=O)CO)C[C@@H]3O[C@H]1C[C@H](N)[C@H](O)[C@H](C)O1 [DOXORUBICIN] | 5.10 | 5.09 | 5.03 | 5.09 | 6.48 | 6.17 |
| O=c1[nH]cc(F)c(=O)[nH]1 [FLUOROURACIL] | 5.04 | 5.24 | 5.02 | 5.59 | 6.34 | 6.11 |
| COc1ccc(-c2coc3cc(O)ccc3c2=O)cc1 [FORMONONETIN] | < 4.00 | < 4.00 | < 4.00 | < 4.00 | 4.08 | < 4.00 |
| O=C1c2ccc(O)cc2O[C@H](c2ccc(O)cc2)[C@H]1O [GARBANZOL] | < 4.00 | < 4.00 | < 4.00 | < 4.00 | < 4.00 | < 4.00 |
| O=C(/C=C/c1ccc(O)cc1)c1ccc(O)cc1O [ISOLIQUIRITIGENIN] | 4.00 | 4.09 | 4.12 | 4.08 | 4.66 | 4.08 |
| O=C1C[C@@H](c2ccc(O)cc2)Oc2cc(O)ccc21 [LIQUIRTIGENIN] | < 4.00 | 4.01 | < 4.00 | < 4.00 | 4.25 | < 4.00 |
| COc1ccc([C@H]2COc3cc(O)ccc3C2)c(OC)c1O [MUCRONULATOL] | 5.00 | 4.52 | 4.74 | 5.08 | 5.14 | 4.62 |
| O=C1C[C@@H](c2ccc(O)cc2)Oc2cc(O)cc(O)c21 [NARINGENIN] | < 4.00 | < 4.00 | < 4.00 | < 4.00 | < 4.00 | < 4.00 |
| COc1ccc(-c2coc3cc(O)cc(O)c3c2=O)cc1O [PRATENSEIN] | < 4.00 | < 4.00 | < 4.00 | < 4.00 | < 4.00 | < 4.00 |
| COc1cc2c(cc1OC)[C@@H]1COc3cc(O)ccc3[C@@H]1O2 [SECUNDIFLOROL I] | < 4.00 | 4.19 | < 4.00 | < 4.00 | 4.35 | 4.07 |
| COc1cc([C@H]2OC[C@H]3[C@@H]2CO[C@@H]3c2cc(OC)c(O)c(OC)c2)cc(OC)c1O [SYRINGARESINOL] | < 4.00 | < 4.00 | < 4.00 | < 4.00 | < 4.00 | < 4.00 |
| COc1ccc(-c2coc3cc(O)ccc3c2=O)c(O)c1 [XENOGNOSIN B] | < 4.00 | 4.47 | < 4.00 | < 4.00 | 4.31 | 4.16 |
